Results as given in patent publication US12138256B2, “Treatment of cardiopulmonary disorders” (Bayer Aktiengesellschaft, priority 2021, dated 2024).
Where “and” joins values, the source holds several entries; their conditions need not be identical. Identical values can stand only once.

Tested on: anesthetized PAH minipigs
Experiment: PAH minipig model: intratracheal application of dry powder formulations and different hydrates (PennCentury insufflator)
Assay type: in vivo, Göttingen minipig
Details: micronized 375 μg/kg intratracheal @90 min
Excerpt: After characterization of the effects of comparative example 11 after nebulization of compound solutions, in a further step the effects of crystalline forms of comparative example 11, e.g. sesquihydrate, e.g. example 6e on PAP and BP after inhaled application of different dry powder lactose formulations (table C2.1.8) were studied in anesthetized PAH minipigs.
As reference pure Lactose vehicle was applied in the beginning of each experiment.

[1] = time not printed, 1st row after 310
[2] = time not printed, 2nd row after 310

O.O.O.O=C(O)c1ccc(CCN(CCc2ccccc2OCc2ccc(-c3ccc(C(F)(F)F)cc3)cc2Cl)[C@H]2CCCc3nc(C(=O)O)ccc32)cc1.O=C(O)c1ccc(CCN(CCc2ccccc2OCc2ccc(-c3ccc(C(F)(F)F)cc3)cc2Cl)[C@H]2CCCc3nc(C(=O)O)ccc32)cc1 [sesquihydrate ex. 6e]
BP (time 100): 99 mmHg and 111 mmHg and 117 mmHg
PAP (time 100): 40.7 mmHg and 38.7 mmHg and 39.6 mmHg
BP (time 110): 101 mmHg and 112 mmHg and 116 mmHg
PAP (time 110): 36.5 mmHg and 37.6 mmHg and 35.4 mmHg
BP (time 120): 101 mmHg and 114 mmHg and 115 mmHg
PAP (time 120): 34.3 mmHg and 36.4 mmHg and 30.8 mmHg
BP (time 130): 101 mmHg and 114 mmHg and 115 mmHg
PAP (time 130): 32.3 mmHg and 35.7 mmHg and 28.6 mmHg
BP (time 140): 99 mmHg and 120 mmHg and 114 mmHg
PAP (time 140): 30.8 mmHg and 35.0 mmHg and 27.5 mmHg
BP (time 150): 99 mmHg and 121 mmHg and 114 mmHg
PAP (time 150): 30.3 mmHg and 29.0 mmHg and 26.6 mmHg
BP (time 160): 100 mmHg and 122 mmHg and 114 mmHg
PAP (time 160): 29.0 mmHg and 30.3 mmHg and 26.9 mmHg
BP (time 170): 101 mmHg and 121 mmHg and 115 mmHg
PAP (time 170): 28.0 mmHg and 28.3 mmHg and 25.1 mmHg
BP (time 180): 99 mmHg and 119 mmHg and 115 mmHg
PAP (time 180): 25.8 mmHg and 30.8 mmHg and 25.3 mmHg
BP (time 190): 99 mmHg and 123 mmHg and 114 mmHg
PAP (time 190): 25.1 mmHg and 30.8 mmHg and 23.9 mmHg
BP (time 200): 98 mmHg and 116 mmHg and 113 mmHg
PAP (time 200): 25.5 mmHg and 30.6 mmHg and 24.6 mmHg
BP (time 210): 99 mmHg and 117 mmHg and 116 mmHg
PAP (time 210): 25.0 mmHg and 30.8 mmHg and 24.2 mmHg
BP (time 220): 97 mmHg and 123 mmHg and 114 mmHg
PAP (time 220): 24.3 mmHg and 32.9 mmHg and 23.6 mmHg
BP (time 230): 97 mmHg and 119 mmHg and 114 mmHg
PAP (time 230): 24.0 mmHg and 31.5 mmHg and 23.6 mmHg
BP (time 240): 97 mmHg and 119 mmHg and 112 mmHg
PAP (time 240): 24.3 mmHg and 31.0 mmHg and 23.5 mmHg
BP (time 250): 97 mmHg and 118 mmHg and 111 mmHg
PAP (time 250): 24.2 mmHg and 31.3 mmHg and 22.9 mmHg
BP (time 260): 96 mmHg and 116 mmHg and 112 mmHg
PAP (time 260): 24.0 mmHg and 31.5 mmHg and 23.5 mmHg
BP (time 270): 99 mmHg and 115 mmHg and 109 mmHg
PAP (time 270): 24.5 mmHg and 29.8 mmHg and 22.6 mmHg
BP (time 280): 97 mmHg and 111 mmHg and 110 mmHg
PAP (time 280): 23.9 mmHg and 29.8 mmHg and 22.8 mmHg
BP (time 290): 97 mmHg and 110 mmHg and 107 mmHg
PAP (time 290): 23.5 mmHg and 30.3 mmHg and 22.0 mmHg
BP (time 300): 98 mmHg and 109 mmHg and 108 mmHg
PAP (time 300): 24.6 mmHg and 30.0 mmHg and 22.2 mmHg
BP (time 310): 97 mmHg and 109 mmHg and 105 mmHg
PAP (time 310): 23.9 mmHg and 29.6 mmHg and 21.9 mmHg
BP [1]: 94 mmHg and 108 mmHg and 105 mmHg
PAP [1]: 25.3 mmHg and 29.1 mmHg and 22.5 mmHg
BP [2]: 97 mmHg and 108 mmHg and 105 mmHg
PAP [2]: 25.1 mmHg and 28.5 mmHg and 21.6 mmHg
